The values that follow come from patent US10544095B2 (Pfizer Inc., priority 2015, dated 2020).

hTDO2 in human glioblastoma A172 cells, sequence (P48775 whole entry): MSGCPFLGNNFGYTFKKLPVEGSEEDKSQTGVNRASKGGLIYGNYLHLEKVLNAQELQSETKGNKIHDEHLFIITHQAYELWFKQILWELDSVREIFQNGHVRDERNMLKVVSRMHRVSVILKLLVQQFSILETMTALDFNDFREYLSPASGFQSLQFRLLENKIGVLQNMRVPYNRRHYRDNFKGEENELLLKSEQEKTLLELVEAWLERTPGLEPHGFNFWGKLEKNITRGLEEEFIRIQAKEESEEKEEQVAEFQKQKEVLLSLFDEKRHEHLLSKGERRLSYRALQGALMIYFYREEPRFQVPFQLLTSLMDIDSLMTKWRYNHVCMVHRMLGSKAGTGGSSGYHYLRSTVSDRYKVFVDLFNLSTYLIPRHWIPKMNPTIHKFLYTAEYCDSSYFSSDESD

This test concerns the target hTDO2 in human glioblastoma A172 cells (Homo sapiens (Human), UniProt P48775). In words: Cellular assay for TDO2 activity determination in A172 cells. The class given is cell-based. The following applies: overnight incubation, kynurenine absorbance at 480 nm. As for the experimental part:
The compounds of formula I inhibit the activity of human TDO2 in cells that constitutively express TDO2, such as A172 cells. A172 is a cell line derived from human brain glioblastoma cells. The cells are available from the American Type Culture Collection (ATCC®) as CRL-1620™.
The assay (adapted from Pilotte L et al., Proc Natl Acad Sci USA, 2012, 109(7), 2497-502) was performed in 96-well flat bottom plates seeded with human glioblastoma A172 cells, naturally expressing hTDO2 (prepared as described in Tilman et al., Mol Cancer, 2007, 17(6), 80), at a concentration of 1.25×10^4 cells/well in a final volume of 200 μL. To determine TDO, the cells were incubated overnight at 37° C. at 5% CO2 in IMDM (Invitrogen) supplemented with 2% FBS and 2% penicillin/streptomycin in the presence of the compounds of the present invention, at different concentrations.
The plates were then centrifuged 5 min at 1000 rpm, and 100 μL of the supernatant were collected in a conical plate, 30 μL of TCA 30% were added and a further centrifuged at 3000×g for 10 minutes. 100 μL of the supernatant were collected in a flat bottomed plate and 100 μL of 2% (w/v) 4-(dimethylamino)-benzaldehyde in acetic acid and incubated for 5 min at room temperature. Kynurenine concentrations were determined by measuring the absorbance at 480 nm. A standard curve was made with pure kynurenine. The TDO activity was measured as described above using ten serial concentrations of the compounds of the present invention. Data were fitted using the Prism™ software (GraphPad Software, Inc.) using standard parameters.
For the compound `NS(=O)(=O)c1ccc(-c2c[nH]c3cc(F)ccc23)cc1CCO` [Example 139, 4-(6-fluoro-1H-indol-3-yl)-2-(2-hydroxyethyl)-benzenesulfonamide], the half-maximal inhibitory concentration (IC50) was found to be 0.12 µM. Next, `O=S(=O)(c1ccc(-c2c[nH]c3cc(F)ccc23)cc1)N1CC[C@@H](O)[C@@H](O)C1` [Example 128, (3S,4R)-1-((4-(6-fluoro-1H-indol-3-yl)phenyl)sulfonyl)piperidine-3,4-diol]: 93.5 µM; `NCCNS(=O)(=O)c1cc(-c2c[nH]c3cc(F)ccc23)ccc1O` [Example 39, N-(2-aminoethyl)-5-(6-fluoro-1H-indol-3-yl)-2-hydroxy-benzenesulfonamide]: 2.9 µM; `C[S+]([O-])CCNS(=O)(=O)c1ccc(-c2c[nH]c3cc(F)ccc23)cc1` (single isomer, unassigned; (+)) [Example 160, (+)-4-(6-fluoro-1H-indol-3-yl)-N-(2-(methylsulfinyl)-ethyl) benzenesulfonamide]: 0.171 µM. Next, `O=S(=O)(NCCc1ncc[nH]1)c1ccc(-c2c[nH]c3cc(F)ccc23)cc1` [Example 73, N-(2-(1H-imidazol-2-yl)ethyl)-4-(6-fluoro-1H-indol-3-yl)benzenesulfonamide]: 0.15 µM; `NS(=O)(=O)c1ccc(-c2c[nH]c3cc(F)ccc23)c(Cl)c1` [Example 136, 3-chloro-4-(6-fluoro-1H-indol-3-yl) benzenesulfonamide]: 0.271 µM; `O=S(=O)(c1cc(-c2c[nH]c3cc(F)ccc23)ccc1Cl)N1CCNCC1` [Example 23, 3-(4-chloro-3-(piperazin-1-ylsulfonyl)phenyl)-6-fluoro-1H-indole]: 0.63 µM. For the compound `C[S+]([O-])CCNS(=O)(=O)c1ccc(-c2c[nH]c3cc(F)ccc23)cc1` (single isomer, unassigned; (-)) [Example 159, (−)-4-(6-fluoro-1H-indol-3-yl)-N-(2-(methylsulfinyl)-ethyl)benzenesulfonamide], half-maximal inhibition (IC50) required 0.22 µM. `O=S(=O)(NCCc1c[nH]nn1)c1ccc(-c2c[nH]c3cc(F)ccc23)cc1` [Example 72, N-(2-(1H-1,2,3-triazol-4-yl)ethyl)-4-(6-fluoro-1H-indol-3-yl)benzenesulfonamide] gave an IC50 of 0.3 µM. The value for `O=C(NCCNS(=O)(=O)c1ccc(-c2c[nH]c3cc(F)ccc23)cc1)N1CCNCC1` [Example 109, N-(2-(4-(6-fluoro-1H-indol-3-yl)phenylsulfonamido)ethyl) piperazine-1-carboxamide] was 1 µM. Take `O=S(=O)(c1ccc(-c2c[nH]c3cc(F)ccc23)cc1)N1C[C@@H](O)[C@H](O)C1` [Example 74, (3R,4R)-1-((4-(6-fluoro-1H-indol-3-yl)phenyl)-sulfonyl)pyrrolidine-3,4-diol]: the IC50 was found to be 0.096 µM. This IC50 lies about 10-fold lower than the previous one. In turn, `O=S(=O)(N[C@@H]1CCOC1)c1ccc(-c2c[nH]c3cc(F)ccc23)cc1` [Example 55, (R)-4-(6-fluoro-1H-indol-3-yl)-N-(tetrahydrofuran-3-yl)-benzenesulfonamide] came in with a half-maximal inhibitory concentration (IC50) of 0.21 µM. In the case of `O=C(CCNS(=O)(=O)c1ccc(-c2c[nH]c3cc(F)ccc23)cc1)N[C@H]1CCOC1` [Example 104, (−)-(S)-3-(4-(6-fluoro-1H-indol-3-yl)phenylsulfonamido)-N-(tetrahydrofuran-3-yl)propanamide], inhibition was half-maximal at 0.24 µM (IC50). This IC50 and that of the compound before are within 1.5-fold of each other.

Regarding `O=S(=O)(c1ccc(-c2c[nH]c3cc(F)ccc23)cc1Cl)N1CCNCC1` [Example 45, 3-(3-chloro-4-(piperazin-1-ylsulfonyl)phenyl)-6-fluoro-1H-indole], the IC50 came to 0.23 µM. The IC50 values of the last two compounds are within 1.5-fold of each other.

Compound `CS(=O)(=O)c1ccc(-c2c[nH]c3cc(F)ccc23)cc1CCO` [Example 179, 2-(5-(6-fluoro-1H-indol-3-yl)-2-(methylsulfonyl)phenyl)ethanol] returned an IC50 of 0.079 µM. Next, `CS(=O)(=O)c1ccc(-c2c[nH]c3cc(F)ccc23)cc1CN` [Example 178, (5-(6-fluoro-1H-indol-3-yl)-2-(methylsulfonyl)phenyl)methanamine]: 0.411 µM.

The compound `COc1ccc(-c2c[nH]c3cc(F)ccc23)cc1S(=O)(=O)NCCN` [Example 33] displayed an IC50 of 0.91 µM. Against the preceding compound, the IC50 is about 2.2-fold higher. The compound `Cc1cc(-c2c[nH]c3cc(F)ccc23)cc(S(=O)(=O)NCCN)c1` [Example 30, N-(2-aminoethyl)-3-(6-fluoro-1H-indol-3-yl)-5-methyl-benzenesulfonamide] showed a concentration for half-maximal inhibition (IC50) of 3.9 µM. The value for `O=c1[nH]nc(CCNS(=O)(=O)c2ccc(-c3c[nH]c4cc(F)ccc34)cc2)o1` [Example 48, 4-(6-fluoro-1H-indol-3-yl)-N-(2-(5-oxo-4,5-dihydro-1,3,4-oxadiazol-2-yl)ethyl)benzenesulfonamide] was 0.44 µM; that for `NC(=O)CCCNS(=O)(=O)c1ccc(-c2c[nH]c3cc(F)ccc23)cc1` [Example 53, 4-(4-(6-fluoro-1H-indol-3-yl)phenylsulfonamido)butanamide] was 0.21 µM; that for `O=S(=O)(c1ccc(-c2c[nH]c3cc(F)ccc23)cc1C(F)(F)F)N1CCNCC1` [Example 24, 6-fluoro-3-(4-(piperazin-1-ylsulfonyl)-3-(trifluoromethyl)-phenyl)-1H-indole] was 0.51 µM. The value for `CNC(=O)c1cc(-c2c[nH]c3cc(F)ccc23)ccc1S(=O)(=O)N1CCNCC1` [Example 57, 5-(6-fluoro-1H-indol-3-yl)-N-methyl-2-(piperazin-1-ylsulfonyl)-benzamide] was 7.1 µM. On to `NS(=O)(=O)c1ccc(-c2c[nH]c3cc(F)ccc23)cc1CO` [Example 176, 4-(6-fluoro-1H-indol-3-yl)-2-(hydroxymethyl)benzenesulfonamide], for which the IC50 worked out at 0.055 µM. The value for `O=C(CCNS(=O)(=O)c1ccc(-c2c[nH]c3cc(F)ccc23)cc1)N1C[C@H](O)[C@@H](O)C1` [Example 171, (−)-N-(3-((3S,4S)-3,4-dihydroxypyrrolidin-1-yl)-3-oxopropyl)-4-(6-fluoro-1H-indol-3-yl)benzenesulfonamide] was 1.74 µM. Next, `CN(CC(O)c1ncc[nH]1)S(=O)(=O)c1ccc(-c2c[nH]c3cc(F)ccc23)cc1` (stereo not drawn) [Example 133, 4-(6-fluoro-1H-indol-3-yl)-N-(2-hydroxy-2-(1H-imidazol-2-yl)ethyl)-N-methylbenzene-sulfonamide]: 0.169 µM; `O=S(=O)(c1ccc(-c2c[nH]c3ccccc23)cc1)N1CCNCC1` [Example 20, 3-(4-(piperazin-1-ylsulfonyl)phenyl)-1H-indole]: 0.25 µM; `O=C(CCNS(=O)(=O)c1ccc(-c2c[nH]c3cc(F)ccc23)cc1)N1CCOCC1` [Example 106, 4-(6-fluoro-1H-indol-3-yl)-N-(3-morpholino-3-oxopropyl)-benzenesulfonamide]: 0.27 µM. Next, `CNC(=O)Cc1cc(-c2c[nH]c3cc(F)ccc23)ccc1S(N)(=O)=O` [Example 143, 2-(5-(6-fluoro-1H-indol-3-yl)-2-sulfamoylphenyl)-N-methylacetamide]: 0.55 µM. `O=S(=O)(NCc1ncon1)c1ccc(-c2c[nH]c3cc(F)ccc23)cc1` [Example 156, N-((1,2,4-oxadiazol-3-yl)methyl)-4-(6-fluoro-1H-indol-3-yl)benzenesulfonamide] came in with a half-inhibitory concentration (IC50) of 0.15 µM. `CN1CCN(S(=O)(=O)c2ccc(-c3c[nH]c4cc(F)ccc34)cc2)CC1=O` [Example 42, 4-((4-(6-fluoro-1H-indol-3-yl)phenyl)sulfonyl)-1-methylpiperazin-2-one] gave an IC50 of 0.26 µM.

`CN(C)C(=O)n1cc(-c2ccc(S(=O)(=O)N3CCNCC3)cc2)c2ccc(F)cc21` [Example 47, 6-fluoro-N,N-dimethyl-3-(4-(piperazin-1-ylsulfonyl)phenyl)-1H-indole-1-carboxamide] had an IC50 of 9.6 µM. This IC50 is about 37-fold higher than that of the compound before.

Take `O=S(=O)(c1ccc(-c2c[nH]c3cc(F)ccc23)cc1)N1CC(O)C1` [Example 65, 1-((4-(6-fluoro-1H-indol-3-yl)phenyl)sulfonyl)azetidin-3-ol]: the half-inhibitory concentration (IC50) is 0.16 µM. Regarding `NC(=O)CCNS(=O)(=O)c1ccc(-c2c[nH]c3cc(F)ccc23)cc1CC(F)F` [Example 175, 3-((2-(2,2-difluoroethyl)-4-(6-fluoro-1H-indol-3-yl)-phenyl)sulfonamido)propanamide], it took 0.449 µM to reach half-maximal inhibition (IC50). Consider `O=S(=O)(c1ccc(-c2c[nH]c3cc(F)ccc23)cc1)N1C[C@H](F)[C@@H](O)[C@H](O)[C@H]1CO` [Example 129, (2R,3R,4S,5S)-5-f1uoro-1-((4-(6-fluoro-1H-indol-3-yl)phenyl)sulfonyl)-2-(hydroxymethyl) piperidine-3,4-diol], for which half-maximal inhibition (IC50) was put at 92 µM. Next, `O=C1CN(S(=O)(=O)c2ccc(-c3c[nH]c4cc(F)ccc34)cc2)CCN1CCO` [Example 151, 4-((4-(6-fluoro-1H-indol-3-yl)phenyl)sulfonyl)-1-(2-hydroxyethyl)piperazin-2-one]: 0.439 µM; `N[C@@H]1CN(S(=O)(=O)c2ccc(-c3c[nH]c4cc(F)ccc34)cc2)C[C@H]1F` [Example 82, (3R,4R)-4-fluoro-1-{[4-(6-fluoro-1H-indol-3-yl)phenyl]sulfonyl}pyrrolidin-3-amine]: 0.25 µM.
